Reference: publication PMC10510511, “Dose–Response Activity-Based DNA-Encoded Library Screening” (ACS Medicinal Chemistry Letters, 2023)
“Also recorded” adds a separate entry of the source.

Legend:
autotaxin (ATX) [1] = biological target: T1, autotaxin (ATX) (Homo sapiens, UniProt Q13822); experiment: ATX dose-response activity-based DEL screening in droplets, hit replicate count by sequencing; format: biochemical; conditions: for k-class (20% UV): ATX screen at 20% UV intensity; for k-class (100% UV): ATX screen at 100% UV intensity
T1 construct: purchased Echelon Biosciences, Salt Lake City, UT
Text: (§1) fluorescence emission was detected by photon counting PMTs (H7828, Hamamatsu, Mid-dlesex, NJ) using a custom two-channel (520 and 570 nm) confocal LIF microscope with […]
(§2) code written in house collected signal data and determines droplet sorting decisions. The […]
(§3) Instruments), and binned into packets of counts (∆t = 0.1 ms). Median-filter smoothing (window width = 3) was applied to the signal in real-time. Droplet signal regions were identified by the 570-nm channel signal (countsn> 200) and 520-nm channel signal maxima (max = countsn−1 when countsn< countsn−1).
A dynamic sorting threshold was calculated in real-time to identify “hit droplets” with reduced 520-nm channel fluorescence. The dynamic threshold was calculated as µ - 4.5σ, where µ andσ were the mean and standard deviation of the last 1000 droplets’ fluorescence values, respectively. Hit droplets were excluded from the fluorescence values used to calculate population mean and standard deviation. When a hit droplet was detected (droplet fluorescence< µ – 4.5σ counts), LabVIEW output a TTL pulse from the DAQ […]
triggering a square wave pulse output (0–7.5 V, 10 kHz, 300 cycles) that was amplified […]
NY) and conducted through luer-lok needle-fitted and microbore tygon tubing filled with liquid metal (gallium:indium:tin alloy 62:22:16 (w%), Alfa Aeser) into a microfabricated […]
ATX Library Screening in Droplets
The ATX droplet screening assay was performed similarly to the FXa assay, but with ATX assay reagents. This was a modification of previously described protocols.4 AQ1 input contained fluorogenic ATX substrate FS-3 9 (10 µM), internal standard 5(6)-TAMRA (5 µM), […]
excised, eluted (C&S buffer, 100 µL, 100 rpm, ON), and pooled for Illumina sequencing at the UCI genomics high throughput facility (MiSeq v2 Nano or MiSeq v2 Micro, paired end).
DNA sequence pattern matching, aggregation by bead barcode, and unique molecular identifier (UMI) filtering were previously described. 3–5 Sequences with a UMI count≤ 5 were discarded. UV doses associated with hit sequences were filtered using the sequencing barcode (Table S5) introduced during library amplification. Of the remaining sequences, compound replicates (k class) were determined by taking the sum of the sequences having the same synthesis encoding region but distinct bead barcodes. […]
(§4) 384-well black-bottom microplates (Corning Scientific, Corning, NY) in triplicate and […]
(§5) incubated (30 min, 25 °C). […]

autotaxin (ATX) [2] = biological target: T1, autotaxin (ATX); experiment: Biochemical assay for ATX hit validation (FS-3 substrate, microplate); conditions: for IC50 / Maximum inhibition (%): ATX; for IC50: relative IC50, 30 min preincubation, 25 °C, 4 parameter logistic fit
Procedure: as §4, §5
Biochemical Assay for ATX Hit Validation […]
plate assay buffer). Compound dilutions (2.5 µL) were added to ATX (100 nM, 5 µL) in 384-well black-bottom microplates (Corning Scientific, Corning, NY) in triplicate and incubated (30 min, 25 °C). FS-3 (20 µM, 2.5 µL) was added and reaction progress was monitored immediately (λex = 483 nm, λem = 530 nm, 25 °C, CLARIOStar Plus, BMG LABTECH). The percent activity was taken as the slope of the fluorescence increase over […]
time (1–10 min) relative to that of a vehicle control. IC50 values were determined by fitting the data to a 4 parameter logistic model using nonlinear regression. […]
Vmax = [S]KM(1 + [I]Ki ) + [S]. […]
v = Vmax(1 + [I]/Ki)[S]. (3)
Rearranging to express relative velocity (v/Vmax):
Vmax = [S](KM + [S])(1 + [I]/Ki). (4)

factor Xa (FXa) [3] = biological target: T2, factor Xa (FXa) (Homo sapiens, UniProt P00742); experiment: FXa dose-response activity-based DEL screening in droplets, hit replicate count by sequencing; format: biochemical; conditions: for k-class (30% UV): FXa screen at 30% UV intensity; for k-class (100% UV): FXa screen at 100% UV intensity
T2 construct: purchased R&D Systems, Minneapolis, MN
Procedure: FXa Library Screening in Droplets
DEL screening for FXa inhibitors was performed in droplets as previously described,4,8 with modifications. After ligating the closing primer, the library was prepared for droplet screening by exchanging into assay buffer, filtering through a 20 µm Celtrics filter, filter-ing through a previously described microfluidic device,4 and counting a dilution with a hemocytometer to determine bead density. AQ1 input contained fluorogenic FXa peptide substrate (6 µM), internal standard 5(6)-TAMRA (2 µM), DEL beads (∼1500 beads/µL), and a PTFE-encapsulated magnet (to agitate beads periodically; 3 mm dia., V&P Scientific, Inc., San Diego, CA) in FXa droplet assay buffer. AQ2 contained FXa (3.8 ng/µL,∼90 nM) in FXa droplet assay buffer.
OIL2 and OIL3 were neat Novec™ 7500.
UV dosing was delivered through a custom fiber optic cable7 controlled through Labview software (National Instruments, Austin, TX). Slight modifications were made to the pre-viously described confocal LIF detection system and LabVIEW code. 3,4 Briefly, droplet […]
as §1, §2, §3
A dynamic sorting threshold was calculated in real-time to identify “hit droplets” with reduced 520-nm channel fluorescence. The dynamic threshold was calculated as µ - 4.5σ, where µ andσ were the mean and standard deviation of the last 1000 droplets’ fluorescence values, respectively. Hit droplets were excluded from the fluorescence values used to calculate population mean and standard deviation. […]
DNA sequence pattern matching, aggregation by bead barcode, and unique molecular identifier (UMI) filtering were previously described. 3–5 Sequences with a UMI count≤ 5 were discarded. UV doses associated with hit sequences were filtered using the sequencing barcode (Table S5) introduced during library amplification. Of the remaining sequences, compound replicates (k class) were determined by taking the sum of the sequences having the same synthesis encoding region but distinct bead barcodes.

factor Xa (FXa) [4] = biological target: T2, factor Xa (FXa); experiment: Biochemical assay for FXa hit validation (fluorogenic 5-FAM/QXL-520 substrate, microplate); conditions: for Maximum inhibition (%) / IC50: FXa; for IC50: 30 min preincubation, 25 °C, 4 parameter logistic fit
Procedure: Biochemical Assay for FXa Hit Validation […]
plate assay buffer). Compound dilutions (2.5 µL) were added to FXa (90 nM, 5 µL) in 384-well black-bottom microplates (Corning Scientific, Corning, NY) in triplicate and […]
as §5
added and reaction progress was monitored immediately (λex = 483 nm,λem = 530 nm, 25 °C, CLARIOStar Plus, BMG LABTECH, Ortenberg, Germany). The percent activity was taken as the slope of the fluorescence increase over time (1–10 min) relative to that of a vehicle control. IC50 values were determined by fitting the data to a 4 parameter logistic model using nonlinear regression. […]

FXa = system: FXa; design: method as in PMID 16161994; conditions: cited from earlier work

T2 sequence (P00742 235-488 limits assumed): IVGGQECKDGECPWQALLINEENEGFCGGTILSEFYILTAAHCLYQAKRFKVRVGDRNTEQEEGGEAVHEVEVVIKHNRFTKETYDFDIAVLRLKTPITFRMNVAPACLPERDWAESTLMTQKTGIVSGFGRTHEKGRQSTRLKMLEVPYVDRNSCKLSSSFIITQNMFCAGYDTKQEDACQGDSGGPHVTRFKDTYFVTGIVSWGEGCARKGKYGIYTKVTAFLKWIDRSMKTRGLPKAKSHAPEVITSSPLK
T2 sequence (P00742 41-179 partner limits assumed): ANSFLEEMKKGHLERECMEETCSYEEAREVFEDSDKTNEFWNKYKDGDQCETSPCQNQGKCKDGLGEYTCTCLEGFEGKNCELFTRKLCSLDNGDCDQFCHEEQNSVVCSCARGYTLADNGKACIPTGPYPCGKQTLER

NC(=O)c1cccc(CNC(=O)[C@@H]2C[C@H]2c2ccccc2)c1 [Hit 12b]
k-class (20% UV) (autotaxin (ATX) [1]): 2 | k-class (100% UV) (autotaxin (ATX) [1]): 3 | ATX inhibition (in words) (autotaxin (ATX) [2]): false positive; also recorded: did not inhibit ATX | IC50 (autotaxin (ATX) [2]): > 300 µM

NC(=O)c1cccc(CNC(=O)c2csc(Cc3ccccc3)n2)c1 [Hit 12a]
k-class (20% UV) (autotaxin (ATX) [1]): 4 | k-class (100% UV) (autotaxin (ATX) [1]): 8 | ATX inhibition (in words) (autotaxin (ATX) [2]): least potent | Maximum inhibition (%) (autotaxin (ATX) [2]): 94% | IC50 (autotaxin (ATX) [2]): 28 ± 14 µM

NC(=O)[C@@H](Cc1csc2ccccc12)NC(=O)c1ccc(N2CCCC2=O)cc1 [Hit 1a]
k-class (30% UV) (factor Xa (FXa) [3]): 14 | k-class (100% UV) (factor Xa (FXa) [3]): 4 | Maximum inhibition (%) (factor Xa (FXa) [4]): 93% | IC50 (factor Xa (FXa) [4]): 4.2 ± 0.1 µM

NC(=O)Cn1c(=O)n(C2CCN(C(=O)c3cnn(CC4CCCCC4)c3)CC2)c2ccccc21 [Hit 16b]
k-class (20% UV) (autotaxin (ATX) [1]): 4 | k-class (100% UV) (autotaxin (ATX) [1]): 2 | ATX inhibition (in words) (autotaxin (ATX) [2]): inhibited ATX fully | Maximum inhibition (%) (autotaxin (ATX) [2]): 96% | IC50 (autotaxin (ATX) [2]): 13 ± 2 µM

NC(=O)[C@@H](Cc1c[nH]c2ccccc12)NC(=O)c1ccc(N2CCCC2=O)cc1 [Hit 2a]
k-class (30% UV) (factor Xa (FXa) [3]): 9 | k-class (100% UV) (factor Xa (FXa) [3]): 6 | Maximum inhibition (%) (factor Xa (FXa) [4]): 95% | IC50 (factor Xa (FXa) [4]): 9 ± 0.3 µM

NC(=O)COc1ccc2c(c1)CCc1ccccc1C2NC(=O)c1ccc(Cl)o1 (stereo not drawn) [Hit 13b]
k-class (20% UV) (autotaxin (ATX) [1]): 0 | k-class (100% UV) (autotaxin (ATX) [1]): 3 | Maximum inhibition (%) (autotaxin (ATX) [2]): 26% | IC50 (autotaxin (ATX) [2]): 6 ± 3 µM

NC(=O)c1cccc(CNC(=O)c2ccc(Cl)s2)c1 [Hit 5a]
k-class (30% UV) (factor Xa (FXa) [3]): 10 | k-class (100% UV) (factor Xa (FXa) [3]): 8 | Maximum inhibition (%) (factor Xa (FXa) [4]): 58% | IC50 (factor Xa (FXa) [4]): 19 ± 2 µM

NC(=O)[C@@H]1CCCN1C1CCN(C(=O)c2cn3cc(Cl)ccc3n2)CC1 [Hit 3a]
k-class (30% UV) (factor Xa (FXa) [3]): 8 | k-class (100% UV) (factor Xa (FXa) [3]): 9 | Maximum inhibition (%) (factor Xa (FXa) [4]): 28% | IC50 (factor Xa (FXa) [4]): > 300 µM | FXa inhibition (in words) (factor Xa (FXa) [4]; at 100 μM): weakly inhibited FXa

NC(=O)c1ccc2c(c1)CCN(C(=O)c1cnn(CC3CCCCC3)c1)C2 [Hit 17a]
k-class (20% UV) (autotaxin (ATX) [1]): 7 | k-class (100% UV) (autotaxin (ATX) [1]): 6 | ATX inhibition (in words) (autotaxin (ATX) [2]): inhibited ATX fully | Maximum inhibition (%) (autotaxin (ATX) [2]): 91% | IC50 (autotaxin (ATX) [2]): 1 ± 0.3 µM

NC(=O)Cn1c(=O)n(C2CCN(C(=O)c3ccc(Cl)cc3C(F)(F)F)CC2)c2ccccc21 [Hit 16a]
k-class (20% UV) (autotaxin (ATX) [1]): 6 | k-class (100% UV) (autotaxin (ATX) [1]): 4 | ATX inhibition (in words) (autotaxin (ATX) [2]): inhibited ATX fully | Maximum inhibition (%) (autotaxin (ATX) [2]): 91% | IC50 (autotaxin (ATX) [2]): 7 ± 2 µM

Cc1cccn2cc(C(=O)NC3c4ccccc4CCc4cc(OCC(N)=O)ccc43)nc12 (stereo not drawn) [Hit 13a]
k-class (20% UV) (autotaxin (ATX) [1]): 0 | k-class (100% UV) (autotaxin (ATX) [1]): 3 | Maximum inhibition (%) (autotaxin (ATX) [2]): 57% | IC50 (autotaxin (ATX) [2]): 6 ± 1 µM

NC(=O)[C@@H](Cc1csc2ccccc12)NC(=O)c1ccc(N2CCOCC2)cc1 [Hit 1b]
k-class (30% UV) (factor Xa (FXa) [3]): 9 | k-class (100% UV) (factor Xa (FXa) [3]): 4 | Maximum inhibition (%) (factor Xa (FXa) [4]): 85% | IC50 (factor Xa (FXa) [4]): 7.4 ± 0.3 µM
